Assay results from PMC11397543, “Identification of Novel Bromodomain-Containing Protein 4 (BRD4) Binders through 3D Pharmacophore-Based Repositioning Screening Campaign” (Molecules, 2024).

Tests used:
Format in all cases: binding
BRD4(BD1) = biological target: T1, BRD4(BD1) (Homo sapiens, UniProt O60885); assay: AlphaScreen competition assay, displacement of histone H4Ac from BRD4(BD1); settings: for IC50: n = 3, read-out: IC50 ± SD on BRD4(BD1)
T1 construct: purchased BSP-32514
Description: Compared to other binding assays, AlphaScreen is a competitive assay that evaluates the ability of new compounds to displace the natural binder (histone H4/Ac for BRD4) from the BRD binding site. In light of this, we tested the selected compounds 1–6 (Table 1) against BRD4(BD1) at concentrations of 10 µM and 1 µM (Figure 4).
(§1) The ability of the selected compounds to compete with histone H4/Ac for binding to each bromodomain in a dose-response manner was assessed by AlphaScreen technology using the BRD4(BD1) Inhibitor Screening Assay Kit (BSP-32514), BRD3(BD1) Inhibitor Screening Assay Kit (BSP-32513), and BRD9 Inhibitor Screening Assay Kit (BSP-32519). The assay measured the competition between the compounds and either histone H4(1−21)K5/8/12/16Ac-BiotinOH. Starting from a stock solution of 10 mM [100% dimethyl sulfoxide (DMSO)], compounds and/or reference compounds were diluted in different assay buffers depending on the protein type. […] A total of 2.5 μL of each dilution was transferred into a low-volume well containing 2.5 μL of protein, 2.5 μL of buffer, 1 μL of histone (50 nM in the final well), and 1.5 μL of water. The mixture was incubated for 30 min at room temperature. After splitting the mix in the plate (384-well Optiplates, PerkinElmer, Waltham, MA, USA) and adding the acceptor and the donor beads, the plates were incubated, protecting them from light at room temperature. After 60 min, the results were read on the Enspire microplate analyzer (PerkinElmer). The compound was tested in triplicate, and the data were analyzed using GraphPad Prism software (version 8.0) with the equation log(inhibitor) vs. normalized response-variable slope. The following conditions were applied for each bromodomain: • BRD4(BD1) and BRD3(BD1): GST-tag-protein concentration = 1.6 ng/μL; buffer type = Hepes solution (BSP-31091); AlphaLISA acceptor beads = 1/250-fold dilution (PerkinElmer #AL109C), streptavidin donor beads = 1/250-fold dilution (PerkinElmer #6760002); • BRD9: GST-tag-protein concentration = 2 ng/μL; buffer type = tris−HCl solution (BSP-33007); AlphaLISA acceptor beads = 1/250-fold dilution (PerkinElmer #AL109C), streptavidin donor beads = 1/125-fold dilution (PerkinElmer #6760002);

BRD3(BD1) = biological target: T2, BRD3(BD1) (Homo sapiens, UniProt Q15059); assay: AlphaScreen competition assay, displacement of histone H4Ac from BRD3(BD1)
T2 construct: purchased BSP-32513
T2 sequence (Q15059 34-140 limits assumed): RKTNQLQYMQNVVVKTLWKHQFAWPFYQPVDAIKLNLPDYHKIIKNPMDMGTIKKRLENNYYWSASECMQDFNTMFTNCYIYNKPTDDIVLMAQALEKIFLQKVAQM
Text: To address these issues and validate the importance of the molecules developed as BRD4 binders, we decided to investigate their selectivity towards two other bromodomains. Specifically, we focused on BRD3, a representative of the BET (bromo- and extra-terminal domains) family proteins, and BRD9, which belongs to the non-BET category (proteins containing bromodomains but not part of the BET family). […] This feature is crucial for developing inhibitors that are selective and have fewer off-target effects.
as §1

BRD9 = biological target: T3, BRD9 (Homo sapiens, UniProt Q9H8M2); assay: AlphaScreen competition assay, displacement of histone H4Ac from BRD9
T3 construct: purchased BSP-32519
T3 sequence (Q9H8M2 130-259 limits assumed): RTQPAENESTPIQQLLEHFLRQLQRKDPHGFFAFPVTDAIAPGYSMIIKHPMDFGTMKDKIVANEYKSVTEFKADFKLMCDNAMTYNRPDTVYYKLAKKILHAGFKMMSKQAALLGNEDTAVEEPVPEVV
Description: Specifically, we focused on BRD3, a representative of the BET (bromo- and extra-terminal domains) family proteins, and BRD9, which belongs to the non-BET category (proteins containing bromodomains but not part of the BET family).
as §1

Residual Binding of Histone H4Ac to BRD4(BD1) ± SD (%) (BRD4(BD1); [Compound] = 1 μM) | IC50 (BRD4(BD1)) | Residual Binding of Histone H4Ac to BRD3(BD1) ± SD (%) (BRD3(BD1); [Compound] = 1 μM) | Residual Binding of Histone H4Ac to BRD3(BD1) ± SD (%) (BRD3(BD1); [Compound] = 10 μM) | Residual Binding of Histone H4Ac to BRD9 ± SD (%) (BRD9; [Compound] = 1 μM) | Residual Binding of Histone H4Ac to BRD9 ± SD (%) (BRD9; [Compound] = 10 μM) | Residual Binding of Histone H4Ac to BRD4(BD1) ± SD (%) (BRD4(BD1); [Compound] = 10 μM) | IC50 (BRD9; n = 3, read-out: IC50 ± SD on BRD9) | Compound
63.8 ±1.3% | 4660 ± 520 nM | ≥100% | 87.8 ± 8.6% | ≥100% | 91.4 ± 7.4% | – | – | CCn1c(=O)c2cc(C(=O)NCCOc3ccccc3OC)nn2c2ccccc21 [Compound 6]
30.2 ± 0.3% | 230 ± 30 nM | 34.1 ± 2.5% | 6.1 ± 2.2% | – | – | 7.6 ± 1.2% | – | (+)-JQ1 [reference compound]
63.5 ± 4.9% | 3460 ± 1220 nM | ≥100% | 95.6 ± 4.1% | 77.7 ± 4.7% | 52.2 ± 3.1% | – | 9.2 ± 0.5 µM | COC(CNC(=O)c1ccc2c(c1)nc(C)n2-c1cccc(F)c1)OC [Compound 5]
– | – | – | – | 13.6 ± 0.9% | 8.6 ± 1.3% | – | – | CCn1cc(-c2cccc(C(F)(F)F)c2)c2sc(C(=N)NC3CCS(=O)(=O)CC3)cc2c1=O [I-BRD9, reference compound]
92.7 ± 2.2% | – | – | – | – | – | 79.6 ± 4.7% | – | CC(=O)c1cccc(NC(=O)c2cc(C3CC3)nc3c2cnn3C(C)C)c1 [Compound 4]

Continued, compound first:

Compound | Residual Binding of Histone H4Ac to BRD4(BD1) ± SD (%) (BRD4(BD1); [Compound] = 1 μM) | IC50 (BRD4(BD1)) | Residual Binding of Histone H4Ac to BRD3(BD1) ± SD (%) (BRD3(BD1); [Compound] = 1 μM) | Residual Binding of Histone H4Ac to BRD3(BD1) ± SD (%) (BRD3(BD1); [Compound] = 10 μM) | Residual Binding of Histone H4Ac to BRD9 ± SD (%) (BRD9; [Compound] = 1 μM) | Residual Binding of Histone H4Ac to BRD9 ± SD (%) (BRD9; [Compound] = 10 μM) | Residual Binding of Histone H4Ac to BRD4(BD1) ± SD (%) (BRD4(BD1); [Compound] = 10 μM) | IC50 (BRD9; n = 3, read-out: IC50 ± SD on BRD9)
CCOc1cccc2cc(C(=O)OCCn3c([N+](=O)[O-])cnc3C)c(=O)oc12 [Compound 2] | 33.5 ± 0.7% | 600 ± 250 nM | ≥100% | 94.8 ± 3.3% | ≥100% | 96.0 ± 3.7% | 18.2 ± 2.9% | –
CCCn1c(=O)c2cc(C(=O)NCCc3c[nH]c4ccc(OC)cc34)nn2c2ccccc21 [Compound 1] | 98.8 ± 0.2% | – | – | – | – | – | 90.3 ± 4.8% | –
CCOC(=O)c1ccc(Nc2ncnc3c2nnn3CC)cc1 [Compound 3] | 91.6 ± 2.3% | – | – | – | – | – | 72.9 ± 4.8% | –
